Data as given in US9140705B2, “Tumor suppressor killin” (Vanderbilt University, priority 2005, dated 2015).

Key:
E. coli = test: Bacterial expression / toxicity (colony formation) of Killin and truncated Killin; type: cell-based; conditions: for toxicity to E. coli (colony formation in the absence of transcriptional repression): pQE32 plasmids expressing truncated Killin
Method: Mutagenesis experiments were performed using EMS (ethylmethanesulfonate) (Sigma) as described previously with minor modification. Exponentially growing XL-1 blue with pQE32-Killin was harvested by centrifugation, washed, and resuspended in minimal A buffer (10.5 g of K2HPO4, 4.5 g of KH2PO4, 1 g of [NH4]2SO4, and 0.5 g of sodium citrate:2H2O in 1 liter). EMS was added to the cells at a concentration of 140 μM for 1 hour during continuous shaking at 37° C. After washing with minimal A buffer, cells was diluted 1:10 in LB medium and grown for 6 hrs at 37° C. before mutagenized plasmids were purified and transformed into either GH1 (without repression, GenHunter) or XL-1 blue (with repression, Stratagene) competent cells. Ampicilin resistant colonies were scored after an overnight incubation.
For deletion analysis, PCR was performed to amplify different regions of Killin as specified. PCR primer sequences used for the deletions are listed below:
The obtained PCR products were first cloned into PCR-TRAP cloning vector and then subcloned as BglII fragments into the BamHI site of the pQE32 6XHIS-tag expression vector (Qiagen). The expression vectors were transformed into XL-1 blue under transcription repression for the transgene (−IPTG). […] As a negative control, all vectors were simultaneously transformed into XL-1 blue cells, which gave near confluent transformants under transcription repression for all constructs. Similar deletion constructs were also made as GFP fusion protein as described above and transiently transfected into the H1299 cells to visualized their ability to cause cell apoptosis based on nuclear chromosome condensation.

[1] = biological target: artificial replication fork; test: In vitro DNA binding assay (gel shift, 32P-end labeled probes), artificial replication fork; conditions: 32P-end labeled oligo nucleotide probes, read-out: apparent Kd
Method: (§1) In vitro transcribed and translated Killin cloned into pcDNA3.1 (Invitrogen) (K), or vector alone (V) were labeled with ^35S using Translabel (ICN) and a TnT kit (Promega). The labeled Killin and vector control were incubated with either single-stranded (ss) or double-stranded (ds) DNA cellulose (Sigma). After washing with PBS, bound proteins were resolved on a 15% SDS-PAGE gel, dried onto as 3M paper before autoradiography. For peptide binding, 42 as of Killin/N8-50 peptide (MW: 5007 dalton) was synthesized and verified with mass spec by Sigma-Genosys at a purity of at least 70%. The peptide was dissolved in PBS as 1 mg/mL stock solution before use, For in vitro DNA binding assay, 3 primers (32-35 bases in length) with arbitrary sequences were designed:
(§2) After annealing, probes for artificial replication fork (LL and RL) or double-stranded DNA template (LL and RLM) were end-labeled with α-^32P-dATP (Perkin-Elmer) using Klenow (New England Biolab). Single-stranded oligonucleotide (LL) was end-labeled with […] (Perkin-Elmer) using T4 polynucleotide kinase (New England Biolab). […] For binding kinetics, bands from DNA-peptide complex were excised and the radioactivity was determined by scintillation counting. […]

double-stranded DNA = test: In vitro DNA binding assay (gel shift, 32P-end labeled probes), double-stranded DNA template; conditions: 32P-end labeled oligo nucleotide probes, read-out: apparent Kd
Method: as §1, §2

[2] = system: SV40 origin (ori) of replication-dependent in vitro DNA replication; test: In vitro SV40 DNA replication assay; type: biochemical, simian virus 40 (SV40); conditions: peptide 1 to 16 μM; HEK293T nuclear extract as source of SV40 large T antigen
Method: The SV40 origin (ori) of replication-dependent in vitro DNA replication was carried out essentially as described previously (L1 and Kelly, 1984) with minor modifications. Briefly, the source of SV40 large T antigen was from HEK293T cells (GenHunter). The SV40 ori-containing plasmid vector pAPtag-2 (GenHunter) and a negative control vector pUC18 that lacks SV40 ori were used as templates for the in vitro DNA replication assays. 10 ng of nuclear protein extracts and 250 ng of plasmid DNA template were used for each assay. Nascent DNA synthesis in the absence and presence of Killin/N8-50 peptide after ^32P-α-dATP labeling was analyzed on a 6% TBE PAGE gel, dried onto a 3 M paper (Whatman) and visualize by autoradiography.
To determine if Killin/N8-50 peptide binding to DNA has any consequences in DNA replication, the inventors employed the commonly used in vitro eukayotic DNA replication assays originally described by L1 and Kelly (1984). This assay uses soluble cell-free system derived from mammalian cell nuclear extract that is capable of replicating exogenous plasmid DNA molecules containing the simian virus 40 (SV40) origin of replication. Replication in the system is completely dependent upon the addition of the SV40 large T antigen. […]

single-stranded DNA = test: In vitro DNA binding assay (gel shift, 32P-end labeled probes), single-stranded DNA template; conditions: 32P-end labeled oligo nucleotide probe, read-out: apparent Kd
Method: as §1, §2

[3] = system: single-stranded (ss) DNA cellulose; test: DNA cellulose binding of in vitro transcribed and translated 35S-labeled Killin, single-stranded; conditions: washed with PBS
Method: as §1, with “designed: […]” for “designed:”

[4] = system: double-stranded (ds) DNA cellulose; test: DNA cellulose binding of in vitro transcribed and translated 35S-labeled Killin, double-stranded; conditions: washed with PBS
Method: as §1, with “designed: […]” for “designed:”

C-terminal 124-178 amino acid residues: Killin coding region truncated at unique Eco41III site, C-terminal part (CRGWRLGNWLHKHPHPNTCPRLPACWLPPILTERGERVPKLVPLLACYPKSKPKD; UniProt B2CW77 124-178, looked up, fragment)
toxicity to E. coli (colony formation in the absence of transcriptional repression) (E. coli): able to transform E. coli into colonies

Killin/N8-50: chemically synthesized peptide of 42 amino acid residues corresponding to N8-50 of Killin (SARPGRTVHVWGYRVEWKVRNGRKLQPSEWAGRGDLGGFKRRW; UniProt B2CW77 8-50, looked up, fragment)
Kd [1]: 1000 nM
Kd (double-stranded DNA): 1000 nM
inhibition of DNA replication in vitro [2]: greatly inhibit DNA replication
Kd (single-stranded DNA): 500 nM

B1: Killin: novel 20 kDa basic nuclear DNA binding protein of 178 amino acids (SEQ ID NO:1), p53 target gene product (protein, listed as Homo sapiens)
chain: MDRPGPGSARPGRTVHVWGYRVEWKVRNGRKLQPSEWAGRGDLGGFKRRWKDTRATVGTTFRRRSRVSLVGELSKFPLPSDSSGGKSSSSFARGALAWCRQRNPNPSCAAAETGARTSLPKERCRGWRLGNWLHKHPHPNTCPRLPACWLPPILTERGERVPKLVPLLACYPKSKPKD
binding to DNA template [3]: able to bind
binding to DNA template [4]: able to bind

B2: 6×HIS-tagged Killin: bacterially expressed full-length N-terminal His-tagged Killin (pQE32 vector) (protein, UniProt B2CW77 1-178, looked up)
chain: B1 chain
modifications: full-length N-terminal His6 tag
time to growth arrest of the bacteria hosts after IPTG induction (E. coli; bacterial expression, induction by IPTG): ≤ 30 min

B3: N-terminal 123 amino acids: Killin coding region truncated at unique Eco41III site, N-terminal part (protein, UniProt B2CW77 1-123, looked up, fragment)
chain: MDRPGPGSARPGRTVHVWGYRVEWKVRNGRKLQPSEWAGRGDLGGFKRRWKDTRATVGTTFRRRSRVSLVGELSKFPLPSDSSGGKSSSSFARGALAWCRQRNPNPSCAAAETGARTSLPKER
toxicity to E. coli (colony formation in the absence of transcriptional repression) (E. coli): sufficient to retain toxicity to E. coli
